Measured values from ChEMBL document CHEMBL1201862, “PubChem BioAssay data set” (2004).
One block for each molecule: values may come before it. Active and inactive are the calls of the source.

Assays:
[1] = target: Genome polyprotein (Hepatitis C virus, UniProt Q2Q167); test: disruption of hepatitis C core self-association – biochemical, TR-FRET, dose response (AID 2159); design: species or system Hepacivirus hominis;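 further: blocks dimerization of HCV core protein measured by TR-FRET between tagged core106 pairs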
Sequence of Genome polyprotein (Q2Q167 whole entry): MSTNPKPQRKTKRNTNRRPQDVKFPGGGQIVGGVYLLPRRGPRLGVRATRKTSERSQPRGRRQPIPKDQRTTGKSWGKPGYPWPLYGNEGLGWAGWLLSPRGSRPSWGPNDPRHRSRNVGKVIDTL

[2] = target: Luciferin 4-monooxygenase (Photinus pyralis, UniProt P08659); test: inhibition of purified Photinus pyralis luciferase – biochemical, luminescence, dose response (AID 1891)
Sequence of Luciferin 4-monooxygenase (P08659 whole entry): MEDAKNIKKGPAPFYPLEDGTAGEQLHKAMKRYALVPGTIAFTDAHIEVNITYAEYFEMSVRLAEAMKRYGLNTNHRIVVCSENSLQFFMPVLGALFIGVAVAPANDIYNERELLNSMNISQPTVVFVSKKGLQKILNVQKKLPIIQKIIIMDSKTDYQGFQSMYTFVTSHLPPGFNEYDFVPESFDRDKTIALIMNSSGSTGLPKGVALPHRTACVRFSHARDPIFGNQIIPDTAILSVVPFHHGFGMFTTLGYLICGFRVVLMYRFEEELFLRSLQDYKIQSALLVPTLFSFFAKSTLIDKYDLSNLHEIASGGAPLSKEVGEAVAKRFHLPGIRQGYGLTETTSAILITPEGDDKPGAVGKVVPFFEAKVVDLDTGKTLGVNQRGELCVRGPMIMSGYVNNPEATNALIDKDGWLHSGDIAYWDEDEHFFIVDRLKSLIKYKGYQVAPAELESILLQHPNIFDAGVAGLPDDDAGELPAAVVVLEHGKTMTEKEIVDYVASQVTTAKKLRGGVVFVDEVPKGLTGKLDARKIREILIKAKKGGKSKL

[3] = Luminescence Cell-Based Dose Confirmation HTS to Identify Inhibitors of Platelet Dense Granule Release. [Related pubchem assays: 1663 (Primary HTS), 1678 (Summary of Project)]; type: functional
[4] = Fluorescence Cell-Based Dose Response to Identify Inhibitors of Thrombin Receptor-Activating Peptide SFLLRN-Mediated P-Selectin Induction on Platelets. [Related pubchem assays: 1663 (Primary HTS), 1889 (retest at dose ), 1891 (counterscreen), 1678 (Project Summary)]; type: functional
[5] = target: T1, Mucolipin-3 (Homo sapiens, UniProt Q8TDD5); test: human mucolipin-3 activators, concentration-response – cell-based, calcium fluorescence, dose response (AID 2510); type: functional
T1 sequence (Q8TDD5 whole entry): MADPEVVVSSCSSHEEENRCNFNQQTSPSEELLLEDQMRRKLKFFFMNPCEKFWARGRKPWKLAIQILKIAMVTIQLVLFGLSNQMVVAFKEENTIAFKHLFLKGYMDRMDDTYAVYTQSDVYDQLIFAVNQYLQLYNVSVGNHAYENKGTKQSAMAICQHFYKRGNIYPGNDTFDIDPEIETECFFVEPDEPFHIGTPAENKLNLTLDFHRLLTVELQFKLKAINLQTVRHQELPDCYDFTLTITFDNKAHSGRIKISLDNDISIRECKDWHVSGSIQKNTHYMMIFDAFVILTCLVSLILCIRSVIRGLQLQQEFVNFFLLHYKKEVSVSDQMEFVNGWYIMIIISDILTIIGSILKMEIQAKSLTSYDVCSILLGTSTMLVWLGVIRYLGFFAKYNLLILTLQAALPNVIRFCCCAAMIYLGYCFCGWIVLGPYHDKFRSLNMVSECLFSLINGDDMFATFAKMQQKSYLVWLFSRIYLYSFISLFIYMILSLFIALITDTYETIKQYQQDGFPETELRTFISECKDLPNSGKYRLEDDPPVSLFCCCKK

[6] = target: T1, Mucolipin-3; test: Dose response cell-based high-throughput screening assay for agonists of the transient receptor potential channel ML3 (TRPML3). [Related pubchem assays: 1526, 1424, 1448 ]; type: functional
[7] = target: T2, Ion channel NompC (Danio rerio, UniProt Q7T1G6); test: Late stage counterscreen for the probe development effort to identify selective agonists of the Transient Receptor Potential Channels 3 (TRPML3): fluorescence-based cell-based dose response assay for TRPN1 agonists.; type: functional
T2 sequence (Q7T1G6 whole entry): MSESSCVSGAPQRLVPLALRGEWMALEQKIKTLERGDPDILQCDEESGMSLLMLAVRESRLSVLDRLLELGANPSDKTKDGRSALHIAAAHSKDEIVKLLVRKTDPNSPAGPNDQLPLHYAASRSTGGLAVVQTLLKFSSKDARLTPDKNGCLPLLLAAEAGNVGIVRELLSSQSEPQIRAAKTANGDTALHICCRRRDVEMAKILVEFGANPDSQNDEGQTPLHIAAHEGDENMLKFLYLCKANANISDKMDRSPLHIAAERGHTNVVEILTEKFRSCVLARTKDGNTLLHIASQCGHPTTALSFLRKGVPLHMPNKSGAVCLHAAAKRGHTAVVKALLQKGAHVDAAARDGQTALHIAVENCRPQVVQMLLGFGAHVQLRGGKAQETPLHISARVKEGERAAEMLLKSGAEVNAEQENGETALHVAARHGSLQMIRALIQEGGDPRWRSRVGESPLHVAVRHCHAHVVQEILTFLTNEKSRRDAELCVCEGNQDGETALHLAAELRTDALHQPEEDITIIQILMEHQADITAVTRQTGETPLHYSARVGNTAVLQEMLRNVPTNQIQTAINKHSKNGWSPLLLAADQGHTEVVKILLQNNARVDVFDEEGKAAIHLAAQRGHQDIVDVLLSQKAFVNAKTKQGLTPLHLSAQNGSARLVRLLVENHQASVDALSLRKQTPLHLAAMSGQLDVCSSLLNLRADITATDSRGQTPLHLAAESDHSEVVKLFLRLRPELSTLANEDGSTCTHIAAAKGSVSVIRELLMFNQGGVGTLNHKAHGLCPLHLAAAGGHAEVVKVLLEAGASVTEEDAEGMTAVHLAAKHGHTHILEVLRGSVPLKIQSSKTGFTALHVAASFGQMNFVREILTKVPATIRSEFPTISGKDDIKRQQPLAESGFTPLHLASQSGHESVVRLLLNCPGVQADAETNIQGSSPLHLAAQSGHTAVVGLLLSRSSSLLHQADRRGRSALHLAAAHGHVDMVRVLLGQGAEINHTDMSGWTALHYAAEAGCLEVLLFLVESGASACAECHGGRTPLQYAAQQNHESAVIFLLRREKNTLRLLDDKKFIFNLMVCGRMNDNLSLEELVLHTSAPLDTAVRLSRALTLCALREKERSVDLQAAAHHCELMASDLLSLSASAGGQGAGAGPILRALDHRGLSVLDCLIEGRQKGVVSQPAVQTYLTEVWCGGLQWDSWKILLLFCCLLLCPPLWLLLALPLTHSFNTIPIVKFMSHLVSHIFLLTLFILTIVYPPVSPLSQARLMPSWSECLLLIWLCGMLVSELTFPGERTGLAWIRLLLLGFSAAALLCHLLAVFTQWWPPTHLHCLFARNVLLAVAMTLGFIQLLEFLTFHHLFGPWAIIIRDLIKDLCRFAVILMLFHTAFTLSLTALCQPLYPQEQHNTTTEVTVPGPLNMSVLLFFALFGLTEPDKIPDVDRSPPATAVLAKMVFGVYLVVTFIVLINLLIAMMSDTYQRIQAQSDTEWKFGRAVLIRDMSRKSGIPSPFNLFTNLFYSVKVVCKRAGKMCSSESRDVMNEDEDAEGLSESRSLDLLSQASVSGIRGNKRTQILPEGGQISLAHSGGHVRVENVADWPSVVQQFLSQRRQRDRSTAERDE

[8] = target: T2, Ion channel NompC; test: Fluorescence counterscreen assay for TRPML3 agonists: dose response cell-based high-throughput screening assay to identify agonists of the transient receptor potential channel N1 (TRPN1). [Related pubchem assays: 1526, 1424, 1448 ]; type: functional
[9] = test system: Danio rerio; test: In Vivo Angiogenesis Dose-Response Confirmation. [Related pubchem assays: 732 (Assay preceding this confirmatory assay.)]; type: functional, organism-based

IC50 [1]: > 49.8 µM (not active)
SMILES: Cc1ccc(-c2nc(=S)c3c(n2Cc2ccco2)CC(C)(C)OC3)cc1

SMILES: CCC(=O)Nc1cccc(NC(=O)c2ccccc2Cl)c1
EC50 [2]: > 112 µM (not active) | EC50 [3]: 3.42 µM (active) | EC50 [4]: < 30 µM (active)

EC50 [5]: 0.95 µM (active) | EC50 [6]: 1.03 µM (active) | EC50 [7]: > 29.9 µM (not active) | EC50 [8]: > 29.9 µM (not active)
SMILES: CCOc1ccc(S(=O)(=O)N2CCCCCC2)c2ccccc12

SMILES: O=C1Nc2ccc(F)cc2/C1=C1/Nc2ccccc2/C1=N\O
IC50 [9]: 0.38 µM (not active)
